A value given as a limit tells only on which side of the number the result lay.

One assay relates to SW-620. The assay can be described thus: Antiproliferative activity against human SW620 cells. It is filed as functional, cell-based.
The test system of the next assay is A-375. The assay can be described thus: Antiproliferative activity against human A375 cells. Format: functional, cell-based.
The subject of another assay is MIA PaCa-2. The assay can be described thus: Antiproliferative activity against human MIAPaCa2 cells. It is filed as functional, cell-based.
The test system of another assay is PBMC. The assay can be described thus: Cytotoxicity against human PBMC assessed as reduction in cell viability. It is filed as cell-based.
Another assay relates to PC-3. The assay can be described thus: Antiproliferative activity against human PC3 cells. It is filed as functional, cell-based.
For a further assay, the system named is MCF7. The assay can be described thus: Antiproliferative activity against human MCF7 cells. It is filed as functional, cell-based.

Take `CCOC(=O)CC1(NC=O)C(=O)N(C(C)=O)c2ccccc21` (centres undefined): the half-inhibitory concentration (IC50) in the assay with SW-620 was greater than 50 µM; in the assay on A-375, greater than 50 µM; in the assay on MIA PaCa-2 it was greater than 50 µM; in the assay on PBMC, greater than 100 µM; in the assay with PC-3, 17 µM; in the assay with MCF7, 30.4 µM.

Take `NC1(Cc2ccccc2)C(=O)Nc2ccccc21` (centres undefined): the half-maximal inhibitory concentration (IC50) in the assay on SW-620 was 37.1 µM; in the assay on A-375, greater than 50 µM; in the assay with MIA PaCa-2 it was 43.1 µM; with PBMC, greater than 100 µM; in the assay with PC-3 it was greater than 50 µM; in the assay on MCF7, greater than 50 µM.

Turning to `CCCC1(NC(=O)OC)C(=O)Nc2ccccc21` (centres undefined), the concentration for half-maximal inhibition (IC50) is greater than 50 µM with SW-620, greater than 50 µM with A-375, greater than 100 µM with PBMC and greater than 50 µM in the assay on MCF7.

On to `CC(=O)N1C(=O)C(Cc2ccccc2)(NC=O)c2ccccc21` (centres undefined), for which the concentration for half-maximal inhibition (IC50) with SW-620 is greater than 50 µM; in the assay on A-375, greater than 50 µM; with MIA PaCa-2, 47 µM; with PBMC it was 45.5 µM; with PC-3 it was 18.2 µM; in the assay on MCF7, 14.4 µM.

With `CCOP(=O)(NC1(Cc2ccccc2)C(=O)Nc2ccc(Br)cc21)OCC` (centres undefined), the Activity result in the assay with SW-620 and with MIA PaCa-2 was “Dose-dependent effect” each time. The IC50 was 27.7 µM in the assay on SW-620; greater than 50 µM in the assay with A-375; 30.2 µM with MIA PaCa-2; 51.8 µM in the assay on PBMC; greater than 50 µM with PC-3; greater than 50 µM in the assay with MCF7.

On to `NC1(Cc2ccccc2)C(=O)Nc2ccc(Br)cc21` (centres undefined), for which the half-maximal inhibitory concentration (IC50) with SW-620 was greater than 50 µM; with A-375, greater than 50 µM; with MIA PaCa-2, greater than 50 µM; in the assay with PBMC, greater than 100 µM; in the assay with PC-3, greater than 50 µM; in the assay on MCF7, greater than 50 µM.

Regarding `CCOC(=O)N1C(=O)C(Cc2ccccc2)(NC=O)c2cc(Br)ccc21` (centres undefined), the IC50 in the assay on SW-620 is greater than 50 µM; with A-375, greater than 50 µM; with MIA PaCa-2, greater than 50 µM; in the assay on PBMC, greater than 100 µM; with PC-3, 32.5 µM; with MCF7 it was greater than 50 µM.

For the compound `O=C(NC1(Cc2ccccc2)C(=O)Nc2ccc(Br)cc21)c1ccccc1` (centres undefined), the IC50 was greater than 50 µM in the assay on SW-620; greater than 50 µM with A-375; greater than 50 µM with MIA PaCa-2; greater than 100 µM in the assay on PBMC; greater than 50 µM with PC-3; greater than 50 µM in the assay with MCF7.

On to `O=CNC1(Cc2ccccc2)C(=O)Nc2ccc(Br)cc21` (centres undefined), for which the half-maximal inhibitory concentration (IC50) with SW-620 amounted to 9.81 µM; with A-375, 6.41 µM; in the assay on MIA PaCa-2, 7.46 µM; in the assay on PBMC, 75.3 µM; in the assay with PC-3, 8.95 µM; with MCF7 it was 17.7 µM.

The IC50 is the concentration that inhibits the measured activity by half.

(Values after ChEMBL document CHEMBL4613232, “Novel 3,3-disubstituted oxindole derivatives. Synthesis and evaluation of the anti-proliferative activity” (Bioorg Med Chem Lett, 2020).)
